From ChEMBL document CHEMBL1909294, “Translating clinical findings into knowledge in drug safety evaluation--drug induced liver injury prediction system (DILIps)” (PLoS Comput Biol, 2011)

How the values were obtained:
Hepatotoxicity [1] = system: Hepatotoxicity;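 on HepSE bilirubinemia: bilirubinemia hepatic side effect score drawn from the DILIps training data, a prediction system for drug-induced liver injury; call rule not given here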;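 on HepSE cholecystitis: Cholecystitis-related hepatic side effect score drawn from the DILIps (drug-induced liver injury prediction) training data set; call rule not given here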;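 on HepSE cholelithiasis: hepatic side effect score for cholelithiasis, drawn from the DILIps training data for predicting drug-induced liver injury; call rule not given here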;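 on HepSE cirrhosis: cirrhosis hepatic side effect score taken from the DILIps (drug-induced liver injury prediction) training set; call rule not given here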;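 on HepSE elevated liver function tests: hepatic side effect score for raised liver function tests, as recorded in the DILIps training set used for predicting drug-induced liver injury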; on HepSE hepatic failure: call rule not given here;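 on HepSE hepatomegaly: hepatic side effect score for hepatomegaly, taken from the training set of the DILIps drug-induced liver injury prediction system; call rule not given here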
Hepatotoxicity [2] = system: Hepatotoxicity; remark: listed apart in the source;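 on HepSE bilirubinemia: bilirubinemia hepatic side effect score drawn from the DILIps training data, a prediction system for drug-induced liver injury; call rule not given here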;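 on HepSE cholecystitis: Cholecystitis-related hepatic side effect score drawn from the DILIps (drug-induced liver injury prediction) training data set; call rule not given here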;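 on HepSE cholelithiasis: hepatic side effect score for cholelithiasis, drawn from the DILIps training data for predicting drug-induced liver injury; call rule not given here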;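 on HepSE cirrhosis: cirrhosis hepatic side effect score taken from the DILIps (drug-induced liver injury prediction) training set; call rule not given here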;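 on HepSE elevated liver function tests: hepatic side effect score for raised liver function tests, as recorded in the DILIps training set used for predicting drug-induced liver injury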; on HepSE hepatic failure: call rule not given here;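 on HepSE hepatomegaly: hepatic side effect score for hepatomegaly, taken from the training set of the DILIps drug-induced liver injury prediction system; call rule not given here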
Hepatotoxicity [3] = system: Hepatotoxicity; remark: listed apart in the source;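 on HepSE bilirubinemia: bilirubinemia hepatic side effect score drawn from the DILIps training data, a prediction system for drug-induced liver injury; call rule not given here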;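 on HepSE cholecystitis: Cholecystitis-related hepatic side effect score drawn from the DILIps (drug-induced liver injury prediction) training data set; call rule not given here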;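 on HepSE cholelithiasis: hepatic side effect score for cholelithiasis, drawn from the DILIps training data for predicting drug-induced liver injury; call rule not given here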;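 on HepSE cirrhosis: cirrhosis hepatic side effect score taken from the DILIps (drug-induced liver injury prediction) training set; call rule not given here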;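 on HepSE elevated liver function tests: hepatic side effect score for raised liver function tests, as recorded in the DILIps training set used for predicting drug-induced liver injury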; on HepSE hepatic failure: call rule not given here
Hepatotoxicity [4] = system: Hepatotoxicity; remark: listed apart in the source;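 on HepSE bilirubinemia: bilirubinemia hepatic side effect score drawn from the DILIps training data, a prediction system for drug-induced liver injury; call rule not given here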;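 on HepSE cholecystitis: Cholecystitis-related hepatic side effect score drawn from the DILIps (drug-induced liver injury prediction) training data set; call rule not given here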;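 on HepSE cholelithiasis: hepatic side effect score for cholelithiasis, drawn from the DILIps training data for predicting drug-induced liver injury; call rule not given here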;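 on HepSE cirrhosis: cirrhosis hepatic side effect score taken from the DILIps (drug-induced liver injury prediction) training set; call rule not given here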;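 on HepSE elevated liver function tests: hepatic side effect score for raised liver function tests, as recorded in the DILIps training set used for predicting drug-induced liver injury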; on HepSE hepatic failure: call rule not given here
Hepatotoxicity [5] = system: Hepatotoxicity; remark: listed apart in the source; on HepSE hepatic failure: call rule not given here
Hepatotoxicity [6] = system: Hepatotoxicity; remark: listed apart in the source; on HepSE hepatic failure: call rule not given here
Hepatotoxicity [7] = system: Hepatotoxicity; remark: listed apart in the source
Hepatotoxicity [8] = system: Hepatotoxicity; remark: listed apart in the source
Hepatotoxicity [9] = system: Hepatotoxicity; remark: listed apart in the source
Hepatotoxicity [10] = system: Hepatotoxicity; remark: listed apart in the source
Hepatotoxicity [11] = system: Hepatotoxicity; remark: listed apart in the source
Hepatotoxicity [12] = system: Hepatotoxicity; remark: listed apart in the source
Hepatotoxicity [13] = system: Hepatotoxicity; remark: listed apart in the source
Hepatotoxicity [14] = system: Hepatotoxicity; remark: listed apart in the source

C[C@]12CC[C@@H]3c4ccc(OC(=O)N(CCCl)CCCl)cc4CC[C@H]3[C@@H]1CC[C@@H]2O [ESTRAMUSTINE]
HepSE_bilirubinemia (Hepatotoxicity [1]): 0 | HepSE_cholecystitis (Hepatotoxicity [2]): 0 | HepSE_cholelithiasis (Hepatotoxicity [3]): 0 | HepSE_cirrhosis (Hepatotoxicity [4]): 0 | HepSE_elevated liver function tests (Hepatotoxicity [5]): 0 | HepSE_hepatic failure (Hepatotoxicity [6]): 0 | HepSE_hepatic necrosis (Hepatotoxicity [7]): 0 | HepSE_hepatitis (Hepatotoxicity [8]): 0 | HepSE_hepatomegaly (Hepatotoxicity [9]): 0 | HepSE_jaundice (Hepatotoxicity [10]): 0 | HepSE_liver disease (Hepatotoxicity [11]): 0 | HepSE_liver fatty (Hepatotoxicity [12]): 0 | HepSE_liver function tests abnormal (Hepatotoxicity [13]): 0 | HepSE_Combined Scores (Hepatotoxicity [14]): 0

NC[C@H](O)c1ccc(O)c(O)c1 [NOREPINEPHRINE]
HepSE_bilirubinemia (Hepatotoxicity [1]): 0 | HepSE_cholecystitis (Hepatotoxicity [2]): 0 | HepSE_cholelithiasis (Hepatotoxicity [3]): 0 | HepSE_cirrhosis (Hepatotoxicity [4]): 0 | HepSE_elevated liver function tests (Hepatotoxicity [5]): 0 | HepSE_hepatic failure (Hepatotoxicity [6]): 0 | HepSE_hepatic necrosis (Hepatotoxicity [7]): 0 | HepSE_hepatitis (Hepatotoxicity [8]): 0 | HepSE_hepatomegaly (Hepatotoxicity [9]): 0 | HepSE_jaundice (Hepatotoxicity [10]): 0 | HepSE_liver disease (Hepatotoxicity [11]): 0 | HepSE_liver fatty (Hepatotoxicity [12]): 0 | HepSE_liver function tests abnormal (Hepatotoxicity [13]): 0 | HepSE_Combined Scores (Hepatotoxicity [14]): 0

CNCC(O)c1ccc(OC(=O)C(C)(C)C)c(OC(=O)C(C)(C)C)c1 (configuration not stated) [DIPIVEFRIN]
HepSE_bilirubinemia (Hepatotoxicity [1]): 0 | HepSE_cholecystitis (Hepatotoxicity [2]): 0 | HepSE_cholelithiasis (Hepatotoxicity [3]): 0 | HepSE_cirrhosis (Hepatotoxicity [4]): 0 | HepSE_elevated liver function tests (Hepatotoxicity [5]): 0 | HepSE_hepatic failure (Hepatotoxicity [6]): 0 | HepSE_hepatic necrosis (Hepatotoxicity [7]): 0 | HepSE_hepatitis (Hepatotoxicity [8]): 0 | HepSE_hepatomegaly (Hepatotoxicity [9]): 0 | HepSE_jaundice (Hepatotoxicity [10]): 0 | HepSE_liver disease (Hepatotoxicity [11]): 0 | HepSE_liver fatty (Hepatotoxicity [12]): 0 | HepSE_liver function tests abnormal (Hepatotoxicity [13]): 0 | HepSE_Combined Scores (Hepatotoxicity [14]): 0

C=C(CC)C(=O)c1ccc(OCC(=O)O)c(Cl)c1Cl [ETHACRYNIC ACID]
HepSE_bilirubinemia (Hepatotoxicity [1]): 0 | HepSE_cholecystitis (Hepatotoxicity [2]): 0 | HepSE_cholelithiasis (Hepatotoxicity [3]): 0 | HepSE_cirrhosis (Hepatotoxicity [4]): 0 | HepSE_elevated liver function tests (Hepatotoxicity [5]): 0 | HepSE_hepatic failure (Hepatotoxicity [6]): 0 | HepSE_hepatic necrosis (Hepatotoxicity [7]): 0 | HepSE_hepatitis (Hepatotoxicity [8]): 0 | HepSE_hepatomegaly (Hepatotoxicity [9]): 0 | HepSE_jaundice (Hepatotoxicity [10]): 1 | HepSE_liver disease (Hepatotoxicity [11]): 0 | HepSE_liver fatty (Hepatotoxicity [12]): 0 | HepSE_liver function tests abnormal (Hepatotoxicity [13]): 1 | HepSE_Combined Scores (Hepatotoxicity [14]): 2

COc1ccc2cc(CCC(C)=O)ccc2c1 [NABUMETONE]
HepSE_bilirubinemia (Hepatotoxicity [1]): 0 | HepSE_cholecystitis (Hepatotoxicity [2]): 0 | HepSE_cholelithiasis (Hepatotoxicity [3]): 0 | HepSE_cirrhosis (Hepatotoxicity [4]): 0 | HepSE_elevated liver function tests (Hepatotoxicity [5]): 1 | HepSE_hepatic failure (Hepatotoxicity [6]): 1 | HepSE_hepatic necrosis (Hepatotoxicity [7]): 0 | HepSE_hepatitis (Hepatotoxicity [8]): 0 | HepSE_hepatomegaly (Hepatotoxicity [9]): 0 | HepSE_jaundice (Hepatotoxicity [10]): 1 | HepSE_liver disease (Hepatotoxicity [11]): 0 | HepSE_liver fatty (Hepatotoxicity [12]): 0 | HepSE_liver function tests abnormal (Hepatotoxicity [13]): 0 | HepSE_Combined Scores (Hepatotoxicity [14]): 3

CC(=O)CC(c1ccccc1)c1c(O)c2ccccc2oc1=O (configuration not stated) [WARFARIN]
HepSE_bilirubinemia (Hepatotoxicity [1]): 0 | HepSE_cholecystitis (Hepatotoxicity [2]): 0 | HepSE_cholelithiasis (Hepatotoxicity [3]): 0 | HepSE_cirrhosis (Hepatotoxicity [4]): 0 | HepSE_elevated liver function tests (Hepatotoxicity [5]): 0 | HepSE_hepatic failure (Hepatotoxicity [6]): 0 | HepSE_hepatic necrosis (Hepatotoxicity [7]): 0 | HepSE_hepatitis (Hepatotoxicity [8]): 1 | HepSE_hepatomegaly (Hepatotoxicity [9]): 0 | HepSE_jaundice (Hepatotoxicity [10]): 1 | HepSE_liver disease (Hepatotoxicity [11]): 0 | HepSE_liver fatty (Hepatotoxicity [12]): 0 | HepSE_liver function tests abnormal (Hepatotoxicity [13]): 0 | HepSE_Combined Scores (Hepatotoxicity [14]): 2

CN1[C@@H]2CC[C@H]1C[C@@H](OC(c1ccccc1)c1ccccc1)C2 [BENZTROPINE]
HepSE_bilirubinemia (Hepatotoxicity [1]): 0 | HepSE_cholecystitis (Hepatotoxicity [2]): 0 | HepSE_cholelithiasis (Hepatotoxicity [3]): 0 | HepSE_cirrhosis (Hepatotoxicity [4]): 0 | HepSE_elevated liver function tests (Hepatotoxicity [5]): 0 | HepSE_hepatic failure (Hepatotoxicity [6]): 0 | HepSE_hepatic necrosis (Hepatotoxicity [7]): 0 | HepSE_hepatitis (Hepatotoxicity [8]): 0 | HepSE_hepatomegaly (Hepatotoxicity [9]): 0 | HepSE_jaundice (Hepatotoxicity [10]): 0 | HepSE_liver disease (Hepatotoxicity [11]): 0 | HepSE_liver fatty (Hepatotoxicity [12]): 0 | HepSE_liver function tests abnormal (Hepatotoxicity [13]): 0 | HepSE_Combined Scores (Hepatotoxicity [14]): 0

C=CCC1(C(C)CCC)C(=O)NC(=O)NC1=O (configuration not stated) [SECOBARBITAL]
HepSE_bilirubinemia (Hepatotoxicity [1]): 0 | HepSE_cholecystitis (Hepatotoxicity [2]): 0 | HepSE_cholelithiasis (Hepatotoxicity [3]): 0 | HepSE_cirrhosis (Hepatotoxicity [4]): 0 | HepSE_elevated liver function tests (Hepatotoxicity [5]): 0 | HepSE_hepatic failure (Hepatotoxicity [6]): 0 | HepSE_hepatic necrosis (Hepatotoxicity [7]): 0 | HepSE_hepatitis (Hepatotoxicity [8]): 0 | HepSE_hepatomegaly (Hepatotoxicity [9]): 0 | HepSE_jaundice (Hepatotoxicity [10]): 0 | HepSE_liver disease (Hepatotoxicity [11]): 0 | HepSE_liver fatty (Hepatotoxicity [12]): 0 | HepSE_liver function tests abnormal (Hepatotoxicity [13]): 0 | HepSE_Combined Scores (Hepatotoxicity [14]): 0

O=C[C@H](O)[C@@H](O)[C@@H](O)[C@H](O)CO [GALACTOSE]
HepSE_bilirubinemia (Hepatotoxicity [1]): 0 | HepSE_cholecystitis (Hepatotoxicity [2]): 0 | HepSE_cholelithiasis (Hepatotoxicity [3]): 0 | HepSE_cirrhosis (Hepatotoxicity [4]): 0 | HepSE_elevated liver function tests (Hepatotoxicity [5]): 0 | HepSE_hepatic failure (Hepatotoxicity [6]): 0 | HepSE_hepatic necrosis (Hepatotoxicity [7]): 0 | HepSE_hepatitis (Hepatotoxicity [8]): 0 | HepSE_hepatomegaly (Hepatotoxicity [9]): 0 | HepSE_jaundice (Hepatotoxicity [10]): 0 | HepSE_liver disease (Hepatotoxicity [11]): 0 | HepSE_liver fatty (Hepatotoxicity [12]): 0 | HepSE_liver function tests abnormal (Hepatotoxicity [13]): 0 | HepSE_Combined Scores (Hepatotoxicity [14]): 0

NCCCC(=O)O [GAMMA-AMINOBUTYRIC ACID]
HepSE_bilirubinemia (Hepatotoxicity [1]): 0 | HepSE_cholecystitis (Hepatotoxicity [2]): 0 | HepSE_cholelithiasis (Hepatotoxicity [3]): 0 | HepSE_cirrhosis (Hepatotoxicity [4]): 0 | HepSE_elevated liver function tests (Hepatotoxicity [5]): 0 | HepSE_hepatic failure (Hepatotoxicity [6]): 0 | HepSE_hepatic necrosis (Hepatotoxicity [7]): 0 | HepSE_hepatitis (Hepatotoxicity [8]): 0 | HepSE_hepatomegaly (Hepatotoxicity [9]): 0 | HepSE_jaundice (Hepatotoxicity [10]): 0 | HepSE_liver disease (Hepatotoxicity [11]): 0 | HepSE_liver fatty (Hepatotoxicity [12]): 0 | HepSE_liver function tests abnormal (Hepatotoxicity [13]): 0 | HepSE_Combined Scores (Hepatotoxicity [14]): 0

C[C@@H](CN1CC(=O)NC(=O)C1)N1CC(=O)NC(=O)C1 [DEXRAZOXANE]
HepSE_bilirubinemia (Hepatotoxicity [1]): 0 | HepSE_cholecystitis (Hepatotoxicity [2]): 0 | HepSE_cholelithiasis (Hepatotoxicity [3]): 0 | HepSE_cirrhosis (Hepatotoxicity [4]): 0 | HepSE_elevated liver function tests (Hepatotoxicity [5]): 0 | HepSE_hepatic failure (Hepatotoxicity [6]): 0 | HepSE_hepatic necrosis (Hepatotoxicity [7]): 0 | HepSE_hepatitis (Hepatotoxicity [8]): 0 | HepSE_hepatomegaly (Hepatotoxicity [9]): 0 | HepSE_jaundice (Hepatotoxicity [10]): 0 | HepSE_liver disease (Hepatotoxicity [11]): 0 | HepSE_liver fatty (Hepatotoxicity [12]): 0 | HepSE_liver function tests abnormal (Hepatotoxicity [13]): 0 | HepSE_Combined Scores (Hepatotoxicity [14]): 0

CC(C)Cn1cnc2c(N)nc3ccccc3c21 [IMIQUIMOD]
HepSE_bilirubinemia (Hepatotoxicity [1]): 0 | HepSE_cholecystitis (Hepatotoxicity [2]): 0 | HepSE_cholelithiasis (Hepatotoxicity [3]): 0 | HepSE_cirrhosis (Hepatotoxicity [4]): 0 | HepSE_elevated liver function tests (Hepatotoxicity [5]): 0 | HepSE_hepatic failure (Hepatotoxicity [6]): 0 | HepSE_hepatic necrosis (Hepatotoxicity [7]): 0 | HepSE_hepatitis (Hepatotoxicity [8]): 0 | HepSE_hepatomegaly (Hepatotoxicity [9]): 0 | HepSE_jaundice (Hepatotoxicity [10]): 0 | HepSE_liver disease (Hepatotoxicity [11]): 0 | HepSE_liver fatty (Hepatotoxicity [12]): 0 | HepSE_liver function tests abnormal (Hepatotoxicity [13]): 0 | HepSE_Combined Scores (Hepatotoxicity [14]): 0

CC(C)C[C@H](NC(=O)[C@H](Cc1ccccc1)NC(=O)c1cnccn1)B(O)O [BORTEZOMIB]
HepSE_bilirubinemia (Hepatotoxicity [1]; Liver): 1 | HepSE_cholecystitis (Hepatotoxicity [2]; Liver): 0 | HepSE_cholelithiasis (Hepatotoxicity [3]; Liver): 0 | HepSE_cirrhosis (Hepatotoxicity [4]; Liver): 0 | HepSE_elevated liver function tests (Hepatotoxicity [5]; Liver): 0 | HepSE_hepatic failure (Hepatotoxicity [6]; Liver): 1 | HepSE_hepatic necrosis (Hepatotoxicity [7]; Liver): 0 | HepSE_hepatitis (Hepatotoxicity [8]; Liver): 1 | HepSE_hepatomegaly (Hepatotoxicity [9]; Liver): 0 | HepSE_jaundice (Hepatotoxicity [10]; Liver): 0 | HepSE_liver disease (Hepatotoxicity [11]; Liver): 0 | HepSE_liver fatty (Hepatotoxicity [12]; Liver): 0 | HepSE_liver function tests abnormal (Hepatotoxicity [13]; Liver): 0 | HepSE_Combined Scores (Hepatotoxicity [14]; Liver): 3
